According to patent US12268727B2, “Bioactive polypeptides for improvements in plant protection, growth and productivity” (priority 2017, dated 2025):
Values joined by “and” are separate entries in the source; they are usually repeats but may differ in a detail not shown here. Identical values can stand only once. Like-named read-outs stand apart in the source and are kept apart here.

Assays:
Assay type in all cases: in vivo
[1] = tested on: soybean; experiment: Foliar application to soybean, field yield trials; conditions: foliar at R2, AG2836, 7 US Midwest locations
[2] = tested on: Cercospora kikuchii; experiment: Cercospora leaf blight severity, field trials in Paraguay; conditions: two foliar applications from R1, 150 and 300 mL/Ha
Procedure: FOX is a commercially available foliar fungicide in South America with limited efficacy for preventative and curative treatment of Asian soybean rust caused by Phakopsora pachyrhizi and Cercospora leaf blight of soybean caused by Cercospora kikuchii applied as a foliar spray following the recommendations on the specimen label at a use rate of 5.48 fluid ounces per acre (Fl. oz/Ac) (400 mL/hectare). Beginning at the R1 stage of development, soybean plants received two foliar applications of the compositions described in Table 90 with an interval of 13-14 days between spray applications. […] Disease assessments for trials that were naturally infected were scored for the severity of infection (0-100% of foliage affected) were scored for 10 plants within each plot for both Asian soybean rust caused by Phakopsora pachyrhizi and Cercospora leaf blight of soybean caused by Cercospora kikuchii at the R4-R5 stage of soy development (4-15 days after second foliar application) with guidance from Godoy et al (1997; Journal of plant diseases and protection 104:336-345). Percent phytotoxicity (0-100% of foliage affected) was also scored at the R4-R5 stage of soy development. […] Standard deviation for each treatment between the three sites was calculated. […]

[3] = tested on: soybean; experiment: Foliar application to soybean, field yield trials; conditions: for Average Bu/Ac Increase compared to Control Variety 1 and 2 / Average Total Yield Bu/Ac Variety 1 and 2 / Average Total Yield Bu/Ac Variety 2: foliar at R2, 7 US Midwest locations; for Average Total Yield Bu/Ac Variety 2: AG3536
[4] = tested on: tomatoes; experiment: Foliar application to tomato, yield; conditions: for Average Trials 1 & 2 Percent Change Yield over Avg. Control / Trial 1: Percent Change in Yield over Avg. Control; Hybrid: Jetsetter / Trial 2: Percent Change in Yield over Avg. Control; Hybrid: Better Big Boy: foliar at early bloom; for increase in tomato yield over control, two hybrids averaged: early bloom
Procedure: Small scale plots were designed to simulate commercial growing conditions for tomatoes. Two hybrids of tomatoes, JetSetter (Trial 1) and Better Big Boy (Trial 2) were started as transplants in the greenhouse 42 to 56 days prior to planting in the raised field beds. Tomatoes were transplanted once soil temperatures three inches (7.6 cm) beneath the soil surface reach 60° F. (15.5° C.). Tomatoes were grown on raised beds covered with black plastic mulch. Plants were grown using drip irrigation and fertilizer applied following grower guidelines throughout the growing season to ensure optimum plant growth and yields. Small raised bed plots were designed to simulate the planting densities used by commercial growers that generally plant 2,600 to 5,800 plants per acre in single rows with 18 to 30 inches (46 to 76 cm) between plants in the row on 5- to 6.5-ft (1.5 to 2 m) centers.
Foliar treatments of Bt.4Q7 Flg22 and Ec. […] Replicated trials were conducted at the University of Missouri (Columbia, Mo.) in July. Control plants were treated with equal volumes (use rates) of water. Effects of the foliar treatments on increasing yield in tomatoes were determined and reported as normalized to the water control treatment.
In another experiment, tomato plants (hybrid: Better Boy), cultivated as described in the previous example, were treated with a formulation of Bt.4Q7 Flg22 at the first bloom stage. The formulation used consisted of the retro inverso D RI Bt.4Q7 Flg22 applied with 0.01% (v/v) non-ionic surfactant. […] At harvest, the yield was measured as the number of fruits per plant, the weight (grams) per fruit and the total yield (lbs/Ac). Table 29 reports the yield as a percent comparison or change to the non-treated control (water only) plants.
Foliar application treatments of Gm.RHPP (SEQ ID NO: 600) was applied as an exogenous spray at the pre-bloom stage and used to increase yield in tomatoes. Two tomato hybrids (JetSetter and Better Big Boy) were planted in small scale plots as described in Example 12. […] Replicated trials were conducted at the US Midwest (Missouri) in July. The foliar treatment of Gm.RHPP on tomato plants was compared to the control (water applied at same use rate). Effects of the foliar treatments on increasing yield in tomatoes were determined and reported as normalized to the water control treatment and reported as the average percentage change in yield over the average control yield in Table 41.
Small scale plots were designed to simulate commercial growing conditions for tomatoes. Tomato plants, variety Roma were started from transplants that were grown in a greenhouse for 45 days prior to planting into 2 raised field row beds with 2 feet (0.6 meters) between each transplant with an average of 30 plants per row bed. […] Tomatoes were grown on raised beds covered with black plastic mulch. Plants were grown using drip irrigation and fertilizer (80 lbs. or 36.3 kg) nitrogen; 100 lbs. (45.4 kg) phosphate, and 100 lbs. (45.4 kg) potash or potassium) applied following grower guidelines throughout the growing season to provide for optimum plant growth and yields. Small raised bed plots were designed to simulate the planting densities used by commercial growers that generally plant 2,600 to 5,800 plants per acre in single rows with 45.7 to 76.2 cm between plants in the row on 1.5- to 2-meter centers. [Orzolek et al., “Agricultural Alternatives: Tomato Production.” University Park: Penn State Extension, 2016].
Foliar treatments using Bt.4Q7Flg22 and Gm.RHPP were applied on the tomato plants directly at early bloom (first flower) stage.

[5] = tested on: corn; conditions: for Average Change in Yield (Bu/Ac) compared to Surfactant control / Average Yield Bu/Ac: foliar at V5, 2 IL locations with drought-like conditions, 16.7 μM; for yield advantage: third study, 10-11 sites
[6] = 1 Fl. oz/Ac, first bloom, hybrid Better Boy, formulation with 0.01% non-ionic surfactant
[7] = combined average of two corn hybrids, two years
[8] = foliar 0.33 Fl. oz/Ac, V5-V8, first year trials, 10 locations
[9] = foliar 0.33 Fl. oz/Ac, V8 corn Dekalb 5064, second year trials

Substance: Bt.4Q7Flg22: Flg22 polypeptide (22 amino acids) from flagellin of Bacillus thuringiensis strain 4Q7 (DRLSSGKRINSASDDAAGLAIA; listed as Bacillus thuringiensis)
- Average Total Yield Bu/Ac Variety 1 ([1]; use rate 0.33 Fl. oz/Ac): 60.33 Bu/Ac
- Average Total Yield Bu/Ac Variety 1 ([1]; use rate 4.0 Fl. oz/Ac): 57.61 Bu/Ac
- Average Total Yield Bu/Ac Variety 1 ([1]; use rate 8.0 Fl. oz/Ac): 59.05 Bu/Ac
- less Cercospora leaf area damage than untreated control [2]: 2.8-3.5%
- win rate ([3]; R2 foliar 0.33 Fl. oz/Ac, 11 locations): 64%
- yield advantage ([3]; R2 foliar, 8 Fl. oz/Ac, 11 sites): 0.88 Bu/Ac
- average yield change vs non-treated control ([3]; R2 foliar, 11 locations, Flg22 polypeptides 0.33 Fl. oz/Ac, RHPP 4 Fl. oz/Ac): −0.1 Bu/Ac
- Average Bu/Ac Increase compared to Control Variety 1 and 2 ([3]; use rate 0.33 Fl. oz/Ac): +0.45 Bu/Ac
- Average Total Yield Bu/Ac Variety 1 and 2 ([3]; use rate 0.33 Fl. oz/Ac): 61.02 Bu/Ac
- Average Bu/Ac Increase compared to Control Variety 1 and 2 ([3]; use rate 4.0 Fl. oz/Ac): +0.33 Bu/Ac
- Average Total Yield Bu/Ac Variety 1 and 2 ([3]; use rate 4.0 Fl. oz/Ac): 60.90 Bu/Ac
- Average Bu/Ac Increase compared to Control Variety 1 and 2 ([3]; use rate 8.0 Fl. oz/Ac): +0.88 Bu/Ac
- Average Total Yield Bu/Ac Variety 1 and 2 ([3]; use rate 8.0 Fl. oz/Ac): 61.45 Bu/Ac
- Average Total Yield Bu/Ac Variety 2 ([3]; use rate 0.33 Fl. oz/Ac): 61.61 Bu/Ac
- Average Total Yield Bu/Ac Variety 2 ([3]; use rate 4.0 Fl. oz/Ac): 64.19 Bu/Ac
- Average Total Yield Bu/Ac Variety 2 ([3]; use rate 8.0 Fl. oz/Ac): 63.86 Bu/Ac
- Percent Change in Number of Fruits per Plant Compared to Control [4, 6]: +12%
- Percent Change in Weight/Fruit Compared to Control [4, 6]: +9%
- Percent Change in Yield (lbs/Ac) Compared to Control [4, 6]: +21%
- Average Trials 1 & 2 Percent Change Yield over Avg. Control ([4]; 1 Fl. oz/Ac): +25%
- Trial 1: Percent Change in Yield over Avg. Control; Hybrid: Jetsetter ([4]; 1 Fl. oz/Ac): +49%
- Trial 2: Percent Change in Yield over Avg. Control; Hybrid: Better Big Boy ([4]; 1 Fl. oz/Ac): +1%
- Average Trials 1 & 2 Percent Change Yield over Avg. Control ([4]; 20 Fl. oz/Ac): +17%
- Trial 1: Percent Change in Yield over Avg. Control; Hybrid: Jetsetter ([4]; 20 Fl. oz/Ac): +22%
- Trial 2: Percent Change in Yield over Avg. Control; Hybrid: Better Big Boy ([4]; 20 Fl. oz/Ac): +12%
- change in fruit weight per plant vs no spray control ([4]; Roma, Bt.4Q7Flg22 16.7 μM at 4.0 Fl. oz/Ac, Gm.RHPP 100 μM at 3.2 Fl. oz/Ac): 8.61%
- increase in tomato yield over control, two hybrids averaged ([4]; high rate 20 Fl. oz/Ac): 17%
- increase in tomato yield over control, two hybrids averaged ([4]; low rate 1 Fl. oz/Ac): 25%
- average yield change vs STRATEGO YLD fungicide alone ([5]; V5 corn, 2 hybrids, 2 locations Iowa, applied with STRATEGO YLD 4.0 Fl. oz/Ac): 5.50 Bu/Ac
- increase in yield vs base seed treatment + surfactant control ([5]; V5 corn, 3 DEKALB hybrids, 6-8 locations, 4.0 Fl. oz/Ac): 1.14 Bu/Ac
- yield increase over non-treated control ([5]; V8 corn Dekalb 5064, 6 locations, Bt.4Q7Flg22 0.33 Fl. oz/Ac, STRATEGO YLD 4.0 Fl. oz/Ac): 4.84 Bu/Ac
- 2-year average yield increase [5, 7]: 8.0 Bu/Ac
- win rate, multiple year [5, 7]: 86%
- yield increase over surfactant control ([5]; drought-like conditions, 2 hybrids, 2 IL locations, 16.7 μM at 4.0 Fl. oz/Ac, cellobiose 320 mM where combined): 3.70 Bu/Ac
- yield increase over control ([5]; drought-like conditions, V5-V7, highest use rate): ~27 Bu/Ac
- average yield increase vs non-treated control [5, 8]: 11.60 Bu/Ac and > 11 Bu/Ac
- win rate [5, 8]: 90%
- average yield increase over control [5, 9]: 4.8 Bu/Ac and ~5 Bu/Ac
- win rate [5, 9]: 83%
- Average Change in Yield (Bu/Ac) compared to Surfactant control ([5]; 2 hybrids, 4.0 Fl. oz/Ac): +3.70 Bu/Ac
- Average Yield Bu/Ac ([5]; 2 hybrids, 4.0 Fl. oz/Ac): 96.46 Bu/Ac
- Average Change in Yield (Bu/Ac) compared to Surfactant control ([5]; 2 hybrids, 48.0 Fl. oz/Ac): +26.61 Bu/Ac
- Average Yield Bu/Ac ([5]; 2 hybrids, 48.0 Fl. oz/Ac): 119.37 Bu/Ac
- Average Total Yield Bu/Ac (6 locations) ([5]; foliar at V8, corn hybrid Dekalb 5064, Bt.4Q7Flg22 0.33 Fl. oz/Ac, STRATEGO YLD 4.0 Fl. oz/Ac): 192.21 Bu/Ac
- Average Bu/Ac Increase compared to Control ([5]; foliar at V8, corn hybrid Dekalb 5064, Bt.4Q7Flg22 0.33 Fl. oz/Ac, STRATEGO YLD 4.0 Fl. oz/Ac, 6 locations): +4.84 Bu/Ac
- yield advantage ([5]; V5-V8, 0.33 Fl. oz/Ac (25 nM)): 5.75 Bu/Ac
- yield advantage ([5]; V5-V8, 4 Fl. oz/Ac (300 nM)): 3.77 Bu/Ac
- yield advantage ([5]; V5-V8, 8 Fl. oz/Ac (600 nM)): 5.05 Bu/Ac
